Measured values as given in US20060276527A1, “Combination therapies for the treatment of cancer” (Thresold Pharmaceuticals, Inc., priority 2003, published 2006).
Where two headings read alike, the source gives them in different places.

Experiments:
metastatic breast cancer = details: addition of LND to epirubicin, factorial design; cited from earlier work
[1] = test system: actin, caspase 3, NF-kappabeta, Ikappabetaalpha; details: except at 800 microM concentration
Experimental: Methods: Cells were plated at a density of 5×10^5 cells into a dish, and then maintained in 37° C. incubator (5% CO2) for 2 days. Prior to the assay, cells were rinsed twice with pre-warmed (37° C.) RPMI-1640 Medium (ATCC No. 30-2001; 10 mM HEPES; 1 mM sodium pyruvate; 2 mM L-glutamine; 4500 mg glucose/L; 1500 mg sodium bicarbonate/L). Cells were incubated with 2 mL culture medium in the absence or presence of lonidamine at different concentrations for 4 hours at 37° C. either under normoxia or hypoxia (oxygen level<0.1%). At the end of the incubation, the dish was placed on ice, and the cells were washed rapidly twice with cold PBS buffer (4° C.). For nuclear extracts, cells were lysed with buffer A (10 mM Tris, pH7.5; 1.5 mM MgCl2; 10 mM KCl and protease inhibitors and buffer C (0.5 M NaCl; 20 mM Tris pH7.5; 1.5 mM MgCl2; 20% glycerol and protease inhibitors), sequentially. The protease inhibitors used in the experiments were a cocktail of five protease inhibitors (500 mM AEBSF-HCl, 1 mg/ml Aprotinin, 1 mM E-64, 500 mM EDTA and 1 mM Leupeptin; Calbiochem NO 539131). For whole cell lysate, cells were lysed with 150 mM NaCl; 10 mM Tris ph7.5; 10 mM EDTA; 1% Triton X-100; 0.5% Deoxycholate, and protease inhibitors. The protein concentration was measured using a Bio-Rad protein assay. Equal amounts of protein were loaded on a SDS-PAGE gel. […]

advanced breast cancer = details: daily divided oral dose of 600 mg, cited from earlier work
HIF-1alpha [2] = details: PC3 cells, normoxic and hypoxic conditions, 4 hours; inhibition dose-dependent
Experimental: Methods: Cells were plated at a density of 5×10^5 cells into a dish, and then maintained in 37° C. incubator (5% CO2) for 2 days. Prior to the assay, cells were rinsed twice with pre-warmed (37° C.) RPMI-1640 Medium (ATCC No. 30-2001; 10 mM HEPES; 1 mM sodium pyruvate; 2 mM L-glutamine; 4500 mg glucose/L; 1500 mg sodium bicarbonate/L). […] At the end of the incubation, the dish was placed on ice, and the cells were washed rapidly twice with cold PBS buffer (4° C.). For nuclear extracts, cells were lysed with buffer A (10 mM Tris, pH7.5; 1.5 mM MgCl2; 10 mM KCl and protease inhibitors and buffer C (0.5 M NaCl; 20 mM Tris pH7.5; 1.5 mM MgCl2; 20% glycerol and protease inhibitors), sequentially. The protease inhibitors used in the experiments were a cocktail of five protease inhibitors (500 mM AEBSF-HCl, 1 mg/ml Aprotinin, 1 mM E-64, 500 mM EDTA and 1 mM Leupeptin; Calbiochem NO 539131). For whole cell lysate, cells were lysed with 150 mM NaCl; 10 mM Tris ph7.5; 10 mM EDTA; 1% Triton X-100; 0.5% Deoxycholate, and protease inhibitors. The protein concentration was measured using a Bio-Rad protein assay. Equal amounts of protein were loaded on a SDS-PAGE gel. […] The specific protein was detected using a colorimetric substrate, and the intensity of each protein was quantified using an NIH image system.

HIF-1alpha [3] = test system: HIF-1alpha
Experimental: LNCaP is a citrate-producing cell (ATTC No. CRL-1740) while PC3 is citrate oxidizing cell (ATTC No. CRL-1435).
Methods: Cells were plated at a density of 5×10^5 cells into a dish, and then maintained in 37° C. incubator (5% CO2) for 2 days. Prior to the assay, cells were rinsed twice with pre-warmed (37° C.) RPMI-1640 Medium (ATCC No. 30-2001; 10 mM HEPES; 1 mM sodium pyruvate; 2 mM L-glutamine; 4500 mg glucose/L; 1500 mg sodium bicarbonate/L). Cells were incubated with 2 mL culture medium in the absence or presence of lonidamine at different concentrations for 4 hours at 37° C. either under normoxia or hypoxia (oxygen level<0.1%). […] For nuclear extracts, cells were lysed with buffer A (10 mM Tris, pH7.5; 1.5 mM MgCl2; 10 mM KCl and protease inhibitors and buffer C (0.5 M NaCl; 20 mM Tris pH7.5; 1.5 mM MgCl2; 20% glycerol and protease inhibitors), sequentially. The protease inhibitors used in the experiments were a cocktail of five protease inhibitors (500 mM AEBSF-HCl, 1 mg/ml Aprotinin, 1 mM E-64, 500 mM EDTA and 1 mM Leupeptin; Calbiochem NO 539131). For whole cell lysate, cells were lysed with 150 mM NaCl; 10 mM Tris ph7.5; 10 mM EDTA; 1% Triton X-100; 0.5% Deoxycholate, and protease inhibitors. The protein concentration was measured using a Bio-Rad protein assay. […]

Structure (SMILES): O=C(O)c1nn(Cc2ccc(Cl)cc2Cl)c2ccccc12 [lonidamine, 1-(2,4-dichlorobenzyl)-1H-indazole-3-carboxylic acid]
- time to progression in metastatic breast cancer patients treated with epirubicin (metastatic breast cancer): not improved
- inhibition of protein levels of actin, caspase 3, NF-kappabeta, or Ikappabetaalpha [1]: no detectable inhibition
- minor response (advanced breast cancer; 28 patients evaluable): 11%
- partial response (4-24+ months) (advanced breast cancer; 28 patients evaluable): 11%
- progressed (advanced breast cancer; of 28 patients evaluable): 20 patients
- stable disease (greater than 3 months) (advanced breast cancer; of 28 patients evaluable): two
- level of HIF-1alpha protein detected in nuclear (NE) and whole-cell extract (WCE) preparations (HIF-1alpha [2]): reduced the level of HIF-1alpha protein
- sensitivity of citrate-producing cells (LNCaP) to lonidamine treatment compared to citrate-oxidizing cells (PC3) (HIF-1alpha [3]; HIF-1alpha accumulation, LNCaP versus PC3): greater sensitivity
- level of HIF-1alpha protein detected in nuclear (NE) and whole-cell extract (WCE) preparations (HIF-1alpha [3]; LNCaP cells, hypoxic conditions (oxygen <0.1%), 4 hours, inhibition dose-dependent): reduced the level of HIF-1alpha protein
